# Assays:
# Format in all cases: in vivo
# Design in all cases: scale not given here
# [1] = tested on: Amaranthus viridis L.; test: Herbicidal effects in upland field foliar treatment (Test Example 3); details: criteria of Table 138; for herbicidal effects on Amaranthus viridis L.: 1000 g of the active ingredient per hectare, 14th day after the treatment, wettable powder; for herbicidal effect (index) on Amaranthus viridis L.: 1000 g active ingredient per hectare, 14th day after treatment
# How it was run: (§1)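 Foliar spray of diluted wettable powder, 1000 g a.i./ha in 1000 L/ha, onto two-week-old greenhouse-grown seedlings in upland field soil. Plants kept in the greenhouse, with effect rated on a criteria scale at day 14.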
# [2] = tested on: Echinochloa crus-galli (L.) P. Beauv. var. crus-galli; test: as above; details: criteria of Table 138; for herbicidal effects on Echinochloa crus-galli (L.) P. Beauv. var. crus-galli: 1000 g of the active ingredient per hectare, 14th day after the treatment, wettable powder; for herbicidal effect (index) on Echinochloa crus-galli (L.) P. Beauv. var. crus-galli: 1000 g active ingredient per hectare, 14th day after treatment
# How it was run: as §1
# [3] = tested on: Abutilon theophrasti medicus; test: as above; details: criteria of Table 138; for herbicidal effects on Abutilon theophrasti medicus: 1000 g of the active ingredient per hectare, 14th day after the treatment, wettable powder; for herbicidal effect (index) on Abutilon theophrasti medicus: 1000 g active ingredient per hectare, 14th day after treatment
# How it was run: as §1
# [4] = tested on: Monochoria vaginalis (Burm. f.) Presl var. plantaginea (Roxb.) Solms-Laub.; test: Herbicidal effects in paddy field soil treatment (Test Example 1); details: for Herbicidal effects index, Monochoria vaginalis (Burm. f.) Presl var. plantaginea (Roxb.) Solms-Laub.: paddy field soil treatment, 1000 g of the active ingredient per hectare, wettable powder added dropwise on water surface, 21st day after treatment; for herbicidal effect (index) on Monochoria vaginalis (Burm. f.) Presl var. plantaginea (Roxb.) Solms-Laub.: paddy field soil treatment (Test Example 1), criteria of Table 138
# How it was run: (§2)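 Application rate 1000 g a.i./ha, delivered as water-diluted wettable powder onto flooded (3 cm) paddy soil one day after sowing. Plants kept in a greenhouse and evaluated for herbicidal effect on day 21 post-treatment.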
# [5] = tested on: Echinochloa oryzicola Vasing; test: as above; details: for Herbicidal effects index, Echinochloa oryzicola Vasing: paddy field soil treatment, 1000 g of the active ingredient per hectare, wettable powder added dropwise on water surface, 21st day after treatment; for herbicidal effect (index) on Echinochloa oryzicola Vasing: paddy field soil treatment (Test Example 1), criteria of Table 138
# How it was run: as §2
# [6] = tested on: Scirpus juncoides Roxb. var. ohwianus. T. Koyama; test: as above; details: for Herbicidal effects index, Scirpus juncoides Roxb. var. ohwianus. T. Koyama: paddy field soil treatment, 1000 g of the active ingredient per hectare, wettable powder added dropwise on water surface, 21st day after treatment; for herbicidal effect (index) on Scirpus juncoides Roxb. var. ohwianus. T. Koyama: paddy field soil treatment (Test Example 1), criteria of Table 138
# How it was run: as §2
# [7] = tested on: Amaranthus viridis L.; test: Herbicidal effects in upland field soil treatment (Test Example 2); details: 1000 g active ingredient per hectare, 21st day after treatment, criteria of Table 138
# How it was run: (§3)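 Herbicidal effect graded 21 days after treatment, plants kept in greenhouse. Treatment was a soil-surface spray of wettable powder in water, 1000 g a.i./ha in 1000 L/ha, applied after sowing and covering seeds.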
# [8] = tested on: Abutilon theophrasti medicus; test: as above; details: 1000 g active ingredient per hectare, 21st day after treatment, criteria of Table 138
# How it was run: as §3
smiles,measurement,setting,value
O=C1CCCC(O)=C1C(=O)c1nc2cccnc2n(-c2cccc(Br)c2)c1=O [IV-17],herbicidal effects on Amaranthus viridis L.,[1],5
same,herbicidal effects on Echinochloa crus-galli (L.) P. Beauv. var. crus-galli,[2],5
same,herbicidal effects on Abutilon theophrasti medicus,[3],5
same,"Herbicidal effects index, Monochoria vaginalis (Burm. f.) Presl var. plantaginea (Roxb.) Solms-Laub.",[4],5
same,"Herbicidal effects index, Echinochloa oryzicola Vasing",[5],5
same,"Herbicidal effects index, Scirpus juncoides Roxb. var. ohwianus. T. Koyama",[6],5
same,herbicidal effect (index) on Amaranthus viridis L.,[7],5
same,herbicidal effect (index) on Abutilon theophrasti medicus,[8],5
O=C1CCCC(O)=C1C(=O)c1nc2ccccc2n(-c2cccc(F)c2)c1=O [II-7],herbicidal effect (index) on Amaranthus viridis L.,[1],5
same,herbicidal effect (index) on Echinochloa crus-galli (L.) P. Beauv. var. crus-galli,[2],5
same,herbicidal effect (index) on Abutilon theophrasti medicus,[3],5
same,"Herbicidal effects index, Monochoria vaginalis (Burm. f.) Presl var. plantaginea (Roxb.) Solms-Laub.",[4],5
same,"Herbicidal effects index, Echinochloa oryzicola Vasing",[5],5
same,"Herbicidal effects index, Scirpus juncoides Roxb. var. ohwianus. T. Koyama",[6],5
same,herbicidal effect (index) on Amaranthus viridis L.,[7],5
same,herbicidal effect (index) on Abutilon theophrasti medicus,[8],5
COc1ccccc1-n1c(=O)c(C(=O)C2=C(O)CCCC2=O)nc2cccnc21 [IV-52],herbicidal effects on Amaranthus viridis L.,[1],5
same,herbicidal effects on Echinochloa crus-galli (L.) P. Beauv. var. crus-galli,[2],5
same,herbicidal effects on Abutilon theophrasti medicus,[3],5
same,herbicidal effect (index) on Monochoria vaginalis (Burm. f.) Presl var. plantaginea (Roxb.) Solms-Laub.,[4],5
same,herbicidal effect (index) on Echinochloa oryzicola Vasing,[5],5
same,herbicidal effect (index) on Scirpus juncoides Roxb. var. ohwianus. T. Koyama,[6],5
same,herbicidal effect (index) on Amaranthus viridis L.,[7],4
same,herbicidal effect (index) on Abutilon theophrasti medicus,[8],5
O=C1CCCC(O)=C1C(=O)c1nc2cc(F)ccc2n(-c2ccccc2)c1=O [II-237],herbicidal effects on Amaranthus viridis L.,[1],5
same,herbicidal effects on Echinochloa crus-galli (L.) P. Beauv. var. crus-galli,[2],5
same,herbicidal effects on Abutilon theophrasti medicus,[3],5
same,"Herbicidal effects index, Monochoria vaginalis (Burm. f.) Presl var. plantaginea (Roxb.) Solms-Laub.",[4],5
same,"Herbicidal effects index, Echinochloa oryzicola Vasing",[5],5
same,"Herbicidal effects index, Scirpus juncoides Roxb. var. ohwianus. T. Koyama",[6],5
same,herbicidal effect (index) on Amaranthus viridis L.,[7],5
same,herbicidal effect (index) on Abutilon theophrasti medicus,[8],5
O=C1CCCC(O)=C1C(=O)c1nc2ccccc2n(-c2ccc(F)cn2)c1=O [I-176],herbicidal effect (index) on Amaranthus viridis L.,[1],5
same,herbicidal effect (index) on Echinochloa crus-galli (L.) P. Beauv. var. crus-galli,[2],5
same,herbicidal effect (index) on Abutilon theophrasti medicus,[3],5
same,"Herbicidal effects index, Monochoria vaginalis (Burm. f.) Presl var. plantaginea (Roxb.) Solms-Laub.",[4],5
same,"Herbicidal effects index, Echinochloa oryzicola Vasing",[5],5
same,"Herbicidal effects index, Scirpus juncoides Roxb. var. ohwianus. T. Koyama",[6],5
same,herbicidal effect (index) on Amaranthus viridis L.,[7],5
same,herbicidal effect (index) on Abutilon theophrasti medicus,[8],5
O=C1CCCC(O)=C1C(=O)c1nc2c(Cl)cccc2n(-c2ccccc2)c1=O [II-190],herbicidal effects on Amaranthus viridis L.,[1],5
same,herbicidal effects on Echinochloa crus-galli (L.) P. Beauv. var. crus-galli,[2],4
same,herbicidal effects on Abutilon theophrasti medicus,[3],5
same,"Herbicidal effects index, Monochoria vaginalis (Burm. f.) Presl var. plantaginea (Roxb.) Solms-Laub.",[4],5
same,"Herbicidal effects index, Echinochloa oryzicola Vasing",[5],5
same,"Herbicidal effects index, Scirpus juncoides Roxb. var. ohwianus. T. Koyama",[6],5
same,herbicidal effect (index) on Amaranthus viridis L.,[7],4
same,herbicidal effect (index) on Abutilon theophrasti medicus,[8],5
CCS(=O)(=O)Cn1c(=O)c(C(=O)C2=C(O)CCCC2=O)nc2ccccc21 [Compound I-82],herbicidal effect (index) on Amaranthus viridis L.,[1],5
same,herbicidal effect (index) on Echinochloa crus-galli (L.) P. Beauv. var. crus-galli,[2],4
same,herbicidal effect (index) on Abutilon theophrasti medicus,[3],5
same,"Herbicidal effects index, Monochoria vaginalis (Burm. f.) Presl var. plantaginea (Roxb.) Solms-Laub.",[4],5
same,"Herbicidal effects index, Echinochloa oryzicola Vasing",[5],5
same,"Herbicidal effects index, Scirpus juncoides Roxb. var. ohwianus. T. Koyama",[6],5
same,herbicidal effect (index) on Amaranthus viridis L.,[7],5
same,herbicidal effect (index) on Abutilon theophrasti medicus,[8],5
"O=C1CCCC(O)=C1C(=O)c1nc2cccnc2n(-c2ccccc2)c1=O [IV-1, 2-(2-hydroxy-6-oxo-1-cyclohexenecarbonyl)-4-phenyl-pyrido[2,3-b]pyrazin-3(4H)-one]",herbicidal effects on Amaranthus viridis L.,[1],5
same,herbicidal effects on Echinochloa crus-galli (L.) P. Beauv. var. crus-galli,[2],5
same,herbicidal effects on Abutilon theophrasti medicus,[3],5
same,"Herbicidal effects index, Monochoria vaginalis (Burm. f.) Presl var. plantaginea (Roxb.) Solms-Laub.",[4],5
same,"Herbicidal effects index, Echinochloa oryzicola Vasing",[5],5
same,"Herbicidal effects index, Scirpus juncoides Roxb. var. ohwianus. T. Koyama",[6],5
same,herbicidal effect (index) on Amaranthus viridis L.,[7],5
same,herbicidal effect (index) on Abutilon theophrasti medicus,[8],5
O=C1CCCC(O)=C1C(=O)c1nc2ccc(F)cc2n(-c2ccc3c(c2)OCO3)c1=O [II-225],herbicidal effects on Amaranthus viridis L.,[1],5
same,herbicidal effects on Echinochloa crus-galli (L.) P. Beauv. var. crus-galli,[2],5
same,herbicidal effects on Abutilon theophrasti medicus,[3],5
same,"Herbicidal effects index, Monochoria vaginalis (Burm. f.) Presl var. plantaginea (Roxb.) Solms-Laub.",[4],5
same,"Herbicidal effects index, Echinochloa oryzicola Vasing",[5],5
same,"Herbicidal effects index, Scirpus juncoides Roxb. var. ohwianus. T. Koyama",[6],5
same,herbicidal effect (index) on Amaranthus viridis L.,[7],5
same,herbicidal effect (index) on Abutilon theophrasti medicus,[8],5
O=C1CCCC(O)=C1C(=O)c1nc2cccnc2n(-c2cccc(C(F)(F)F)c2)c1=O [IV-39],herbicidal effects on Amaranthus viridis L.,[1],5
same,herbicidal effects on Echinochloa crus-galli (L.) P. Beauv. var. crus-galli,[2],5
same,herbicidal effects on Abutilon theophrasti medicus,[3],5
same,"Herbicidal effects index, Monochoria vaginalis (Burm. f.) Presl var. plantaginea (Roxb.) Solms-Laub.",[4],5
same,"Herbicidal effects index, Echinochloa oryzicola Vasing",[5],5
same,"Herbicidal effects index, Scirpus juncoides Roxb. var. ohwianus. T. Koyama",[6],5
same,herbicidal effect (index) on Amaranthus viridis L.,[7],5
same,herbicidal effect (index) on Abutilon theophrasti medicus,[8],5
O=C1CCCC(O)=C1C(=O)c1nc2ccccc2n(-c2ccc(C(F)(F)F)cc2)c1=O [II-44],herbicidal effects on Amaranthus viridis L.,[1],5
same,herbicidal effects on Echinochloa crus-galli (L.) P. Beauv. var. crus-galli,[2],5
same,herbicidal effects on Abutilon theophrasti medicus,[3],5
same,"Herbicidal effects index, Monochoria vaginalis (Burm. f.) Presl var. plantaginea (Roxb.) Solms-Laub.",[4],5
same,"Herbicidal effects index, Echinochloa oryzicola Vasing",[5],5
same,"Herbicidal effects index, Scirpus juncoides Roxb. var. ohwianus. T. Koyama",[6],5
same,herbicidal effect (index) on Amaranthus viridis L.,[7],5
same,herbicidal effect (index) on Abutilon theophrasti medicus,[8],5
C#CCn1c(=O)c(C(=O)C2=C(O)CCCC2=O)nc2cccnc21 [III-35],herbicidal effects on Amaranthus viridis L.,[1],5
same,herbicidal effects on Echinochloa crus-galli (L.) P. Beauv. var. crus-galli,[2],4
same,herbicidal effects on Abutilon theophrasti medicus,[3],5
same,"Herbicidal effects index, Monochoria vaginalis (Burm. f.) Presl var. plantaginea (Roxb.) Solms-Laub.",[4],5
same,"Herbicidal effects index, Echinochloa oryzicola Vasing",[5],4
same,"Herbicidal effects index, Scirpus juncoides Roxb. var. ohwianus. T. Koyama",[6],5
same,herbicidal effect (index) on Amaranthus viridis L.,[7],5
same,herbicidal effect (index) on Abutilon theophrasti medicus,[8],5
COc1cc(-n2c(=O)c(C(=O)C3=C(O)CCCC3=O)nc3ccccc32)cc(OC)c1OC [II-185],herbicidal effects on Amaranthus viridis L.,[1],5
same,herbicidal effects on Echinochloa crus-galli (L.) P. Beauv. var. crus-galli,[2],4
same,herbicidal effects on Abutilon theophrasti medicus,[3],5
same,"Herbicidal effects index, Monochoria vaginalis (Burm. f.) Presl var. plantaginea (Roxb.) Solms-Laub.",[4],5
same,"Herbicidal effects index, Echinochloa oryzicola Vasing",[5],4
same,"Herbicidal effects index, Scirpus juncoides Roxb. var. ohwianus. T. Koyama",[6],5
same,herbicidal effect (index) on Amaranthus viridis L.,[7],5
same,herbicidal effect (index) on Abutilon theophrasti medicus,[8],5
O=C1CCCC(O)=C1C(=O)c1nc2cccnc2n(-c2ccccc2OC(F)(F)F)c1=O [IV-100],herbicidal effects on Amaranthus viridis L.,[1],5
same,herbicidal effects on Echinochloa crus-galli (L.) P. Beauv. var. crus-galli,[2],5
same,herbicidal effects on Abutilon theophrasti medicus,[3],5
same,herbicidal effect (index) on Monochoria vaginalis (Burm. f.) Presl var. plantaginea (Roxb.) Solms-Laub.,[4],5
same,herbicidal effect (index) on Echinochloa oryzicola Vasing,[5],5
same,herbicidal effect (index) on Scirpus juncoides Roxb. var. ohwianus. T. Koyama,[6],5
same,herbicidal effect (index) on Amaranthus viridis L.,[7],5
same,herbicidal effect (index) on Abutilon theophrasti medicus,[8],5

# Source: patent publication US8389523B2, “Substituted quinoxaline and an agrochemical composition thereof” (Kumiai Chemical Industry Co., Ltd., priority 2007, dated 2013)
